These results are taken from PMC7866972, “Crosstalk of Cancer Signaling Pathways by Cyclic Hexapeptides and Anthraquinones from Rubia cordifolia” (Molecules, 2021).

What all share (type): cell-based
The test system of one experiment is pTK control vector. Description: pTK control vector luciferase assay (minimal thymidine kinase promoter). The following applies: Homo sapiens, HeLa cells, 30 µM, no inducer, read-out: percentage of luciferase induction pTK/No Induction. How it is done: (§1) Hela cells from ATCC were plated in white opaque 384 well plates at a density of 4300 cells/well in 30 µL of a growth medium (DMEM with 10% FBS and 1% Pen/step). The next day, the medium was aspirated and replaced with DMEM containing 10% FBS. The cells were transfected with respective plasmids using the X-tremeGENE HP transfection reagent (Roche). Luciferase vectors used in this assay are summarized in Table S2, Supporting Information. After 24 h of transfection, the test agents were added to the transfected cells, followed 30 min later by an inducing agent (IL-6 for Stat 3, TGF-beta for Smad, m-wnt3a for Wnt and PMA for AP-1, NF-kB, E2F, Myc, ETS, Notch and Hedgehog). No inducer was added for FoXO, miR-21, and […]. After 4 h or 6 h of induction, the cells were lysed by the addition of the One-Glo luciferase assay system (Promega, Madison, WI, USA). The light output was detected in a Glomax Multi+ detection system with the Instinct Software (Promega, Madison, WI, USA). This luciferase assay determines if the test agent was able to inhibit the activation of cancer-related signaling pathways. In the case of FoxO and mi-R21, the enhanced luciferase activity by the test agent was assessed.

A further experiment deals with miR-21. Briefly: miR-21 luciferase reporter assay (no inducer). The settings on record: Homo sapiens, HeLa cells, 30 µM, 6 h, read-out: percentage of luciferase induction mi-R21/No Induction. The method, then:
as §1

The next experiment has as its system NF-κB. Briefly: NF-κB luciferase reporter assay (PMA induced). The settings on record: Homo sapiens; HeLa cells; 30 µM; compared to pTK as control; 4 h; read-out: percentage of luciferase induction NF-kB/PMA. How it is done: as §1
(In a reporter assay the amount or activity of a reporter protein is the signal.)

Another experiment relates to Myc. Briefly: Myc luciferase reporter assay (PMA induced). The following applies: Homo sapiens; HeLa cells; 30 µM; compared to pTK as control; 4 h; read-out: percentage of luciferase induction Myc/PMA. The method, then: as §1
For the next experiment, the system named is E2F. Briefly: E2F luciferase reporter assay (PMA induced). The following applies: Homo sapiens; HeLa cells; 30 µM; compared to pTK as control; 4 h; read-out: percentage of luciferase induction E2F/PMA. How it is done: as §1
The next experiment has as its system Ets. Description: Ets luciferase reporter assay (PMA induced). The settings on record: Homo sapiens; HeLa cells; 30 µM; compared to pTK as control; 4 h; read-out: percentage of luciferase induction Ets/PMA. How it is done: as §1
The subject of a further experiment is FoxO. Description: FoxO luciferase reporter assay (no inducer). The following applies: Homo sapiens, HeLa cells, 30 µM, 6 h, read-out: percentage of luciferase induction FoxO/No Induction. The method, then: as §1
The test system of another experiment is Notch. Description: Notch luciferase reporter assay (PMA induced). The following applies: Homo sapiens; HeLa cells; 30 µM; compared to pTK as control; 6 h; read-out: percentage of luciferase induction Notch/PMA. The method, then:
as §1

The subject of experiment [1] is cancer-related signaling pathways in HeLa cells. Description: Panel of luciferase reporter genes for cancer-related signaling pathways. The settings on record: HeLa cells; 30 µM. How it is done: as §1
The simulated gastric fluid was prepared as described in the United States Pharmacopoeia (USP, 1995) and consists of 0.2% w/v of NaCl and 0.7% v/v of hydrochloric acid at pH 1.2. Aliquots (48 µL) of SGF were placed in 1.5-mL microcentrifuge tubes and incubated in a water bath at 37 °C [35]. In addition, 2 µL of compound 6 (10 mg/mL in DMSO) was added to each of the SGF vials to start the digestion reaction. The incubation was continued for 60 min and the digestion was stopped with 150 µL of ice-cold cell culture media. The digested samples were used for the cytotoxicity and luciferase assays at different concentrations and the activities were compared between the untreated and SGF treated peptide samples.

The test system of a further experiment is Ap-1. Description: AP-1 luciferase reporter assay (PMA induced). The settings on record: HeLa cells; 30 µM; compared to pTK as control; 4 h; read-out: percentage of luciferase induction Ap-1/PMA. How it is done:
as §1

A further experiment has as its system Hedgehog. Briefly: Hedgehog luciferase reporter assay (PMA induced). The settings on record: Homo sapiens; HeLa cells; 30 µM; compared to pTK as control; 6 h; read-out: percentage of luciferase induction Hdghog/PMA. How it is done: as §1
A further experiment concerns Wnt. Description: Wnt luciferase reporter assay (m-wnt3a induced). The settings on record: Homo sapiens; HeLa cells; 30 µM; compared to pTK as control; 6 h; read-out: percentage of luciferase induction Wnt/m-wnt 3a. The method, then: as §1
In another experiment the test system is Stat3. Description: Stat3 luciferase reporter assay (IL-6 induced). The settings on record: Homo sapiens; HeLa cells; 30 µM; compared to pTK as control; 4 h; read-out: percentage of luciferase induction Stat3/IL-6. How it is done: as §1
For the next experiment, the system named is Smad. Description: Smad luciferase reporter assay (TGF-beta induced). The settings on record: Homo sapiens; HeLa cells; 30 µM; compared to pTK as control; 4 h; read-out: percentage of luciferase induction Smad/TGF-β. How it is done:
as §1

As for `Cc1cc(O)c2c(c1)C(=O)c1cc(O)cc(O)c1C2=O` [Compound 3, emodin], the activity at 30 µM with pTK control vector was found to be 144%; in the experiment with miR-21 it was 309%; in the experiment on NF-κB, 45%; in the experiment on Myc, 46%; in the experiment with E2F it was 144%; in the experiment with Ets it was 53%. Further, the activity at 30 µM was 112% in the experiment with FoxO; 424% with Notch; 45% with Ap-1; 42% in the experiment on Hedgehog; 11% in the experiment with Wnt; 48% in the experiment on Stat3. Moreover, the activity at 30 µM with Smad stood at 46%. Moreover, the “activity towards the signaling pathways (in words)” value in [1] is “inhibited the activation of several pathways with Wnt being the most sensitive”.
